“And” between values parts separate entries of the source, which are not always exact repeats. Equal entries are not always repeated. Toxic doses and inconclusive results are not listed.
Tested on: BDF1 mice, P388 leukemia (terephthalanilide-resistant), survival T/C
Assay: NCI In Vivo Anticancer Drug Screen. Data for tumor model P388 Leukemia resistant to A Terephthalanilide; NSC 38280 (intraperitoneal) in B6D2F1 (BDF1) mice
Conditions: endpoint: median survival time, higher = longer survival
Description: The antitumor activity of compounds was measured in mice bearing transplantable tumors. Survival or tumor size were measured and the results are expressed as the measurement made in the treated group (T) divided by the measurement made in the vehicle treated control group (C). The tumor model used in this assay is P388 Leukemia resistant to A Terephthalanilide; NSC 38280 (intraperitoneal) in B6D2F1 (BDF1) mice

SMILES: S=c1nc[nH]c2nc[nH]c12
- T/C (dose: 5.0 mg/kg/injection, schedule: Q01DX010 (ip), vehicle: alkali diluted with saline): 105 % of control
- T/C (dose: 5.0 mg/kg/injection, schedule: Q01DX Z (ip), vehicle: saline): 100 % of control
- T/C (dose: 10.0 mg/kg/injection, schedule: Q01DX010 (ip), vehicle: alkali diluted with saline): 88 % of control
- T/C (dose: 10.0 mg/kg/injection, schedule: Q01DX Z (ip), vehicle: saline): 100 % of control and 104 % of control
- T/C (dose: 20.0 mg/kg/injection, schedule: Q01DX010 (ip), vehicle: alkali diluted with saline): 100 % of control
- T/C (dose: 20.0 mg/kg/injection, schedule: Q01DX Z (ip), vehicle: saline): 100 % of control and 109 % of control
- T/C (dose: 40.0 mg/kg/injection, schedule: Q01DX010 (ip), vehicle: alkali diluted with saline): 94 % of control
- T/C (dose: 40.0 mg/kg/injection, schedule: Q01DX Z (ip), vehicle: saline): 122 % of control
- T/C (dose: 80.0 mg/kg/injection, schedule: Q01DX Z (ip), vehicle: saline): 154 % of control

SMILES: CN(Cc1cnc2nc(N)nc(N)c2n1)c1ccc(C(=O)N[C@@H](CCC(=O)O)C(=O)O)cc1
- T/C (dose: 0.19 mg/kg/injection, schedule: Q01DX010 (ip), vehicle: other): 122 % of control
- T/C (dose: 0.38 mg/kg/injection, schedule: Q01DX Z (ip), vehicle: saline): 172 % of control and 195 % of control
- T/C (dose: 0.75 mg/kg/injection, schedule: Q01DX010 (ip), vehicle: other): 194 % of control
- T/C (dose: 0.75 mg/kg/injection, schedule: Q01DX Z (ip), vehicle: saline): 272 % of control and 277 % of control
- T/C (dose: 1.5 mg/kg/injection, schedule: Q01DX010 (ip), vehicle: other): 216 % of control
- T/C (dose: 1.5 mg/kg/injection, schedule: Q01DX Z (ip), vehicle: saline): 213 % of control and 272 % of control
- T/C (dose: 3.0 mg/kg/injection, schedule: Q01DX010 (ip), vehicle: other): 111 % of control
- T/C (dose: 3.0 mg/kg/injection, schedule: Q01DX Z (ip), vehicle: saline): 90 % of control and 95 % of control

SMILES: CCCCNc1ncnc2c1cnn2C
- T/C (dose: 31.3 mg/kg/injection, schedule: Q01DX010 (ip), vehicle: saline): 100 % of control
- T/C (dose: 62.5 mg/kg/injection, schedule: Q01DX010 (ip), vehicle: saline): 95 % of control and 111 % of control
- T/C (dose: 125.0 mg/kg/injection, schedule: Q01DX010 (ip), vehicle: saline): 88 % of control

SMILES: NC(=O)N(CCCl)N=O
- T/C (dose: 0.5 mg/kg/injection, schedule: Q01DX010 (ip), vehicle: saline): 172 % of control
- T/C (dose: 1.0 mg/kg/injection, schedule: Q01DX010 (ip), vehicle: saline): 172 % of control
- T/C (dose: 2.0 mg/kg/injection, schedule: Q01DX010 (ip), vehicle: saline): 109 % of control
